Measured values taken from US8617871B2, “Method and culture medium for enhanced detection of Mycobacterium” (bioMerieux, Inc., priority 2009, dated 2013).
Values joined by “and” are separate entries in the source; they are usually repeats but may differ in a detail not shown here. Equal entries are not always repeated. Where two headings read alike, the source gives them in different places.

Tests used:
M. intracellulare = assay type: cell-based, Mycobacterium intracellulare
M. scrofulaceum = experiment: Time to detection (TTD) of growth in BacT/ALERT MP culture bottles; assay type: cell-based, Mycobacterium scrofulaceum; details: for effect on the growth (as determined by TTD of growth): Mycobacterium scrofulaceum, compared to a culture medium that contained no antimicrobial agents; for # Positives: of # Tested
Procedure: (§1) For the new NS, an autoclaved or new BacT/ALERT® MP bottle was used (as described hereinabove) and for conventional/old RF, conventional/old MP bottle (bioMérieux, Inc.) was used. […] The conventional MAS (using conventional/old RF) and new MAS formulas (using NS) were added to the second set of MP culture bottles. The experiment was performed with mycobacteria species at 0.5×10^3 CFU/ml and CRF cultures at 0.5×10^5 CFU/ml.
(§2) The mycobacteria inoculum was 0.5×10^3 CFU/ml.

M. tuberculosis = experiment: as above; assay type: cell-based, Mycobacterium tuberculosis; details: for # Positive: of # Tested
M. kansasii = experiment: as above; assay type: cell-based, Mycobacterium kansasii; details: for effect on the growth (as determined by TTD of growth): Mycobacterium kansasii, compared to a culture medium that contained no antimicrobial agents; for # Positives: M. kansasii 12478, of # Tested
Procedure: as §1, §2

M. fortuitum = experiment: as above; assay type: cell-based; details: M. fortuitum 6841; for # Positives: of # Tested
[1] = tested on: contaminating respiratory flora (CRF); assay type: cell-based
M. avium = assay type: cell-based, Mycobacterium avium
[2] = M. tuberculosis 27294, Media + AZL 24
[3] = M. scrofulaceum 19981, Media + VAN 3.5

Structure (SMILES): CC1(C)S[C@@H]2[C@H](NC(=O)[C@H](NC(=O)N3CCNC3=O)c3ccccc3)C(=O)N2[C@H]1C(=O)O [AZL, azlocillin]
- effect on the growth (as determined by TTD of growth) (M. intracellulare): negative effect
- effect on the growth (as determined by TTD of growth) (M. scrofulaceum): negative effect
- # Positive (M. tuberculosis; M. tuberculosis 25177, Media + AZL12): 4.0
- # Positive (M. tuberculosis; M. tuberculosis 25177, Media + AZL 24): 2.0
- # Positive (M. tuberculosis; M. tuberculosis 25177, Media + AZL 48): 2.0
- # Positive (M. tuberculosis; M. tuberculosis 27294, Media + AZL12): 4.0
- Average TTD (M. tuberculosis; [2]): 16.0 days
- # Positive (M. tuberculosis; [2]): 4.0
- # Positive (M. tuberculosis; M. tuberculosis 27294, Media + AZL 48): 4.0
- effect on the growth (as determined by TTD of growth) (M. tuberculosis; Mycobacterium tuberculosis, compared to a culture medium that contained no antimicrobial agents): negative effect
- effect on the growth (as determined by TTD of growth) (M. kansasii): negative effect

Structure (SMILES): CN[C@H](CC(C)C)C(=O)N[C@H]1C(=O)N[C@@H](CC(N)=O)C(=O)N[C@H]2C(=O)N[C@H]3C(=O)N[C@H](C(=O)N[C@H](C(=O)O)c4cc(O)cc(O)c4-c4cc3ccc4O)[C@H](O)c3ccc(c(Cl)c3)Oc3cc2cc(c3O[C@@H]2O[C@H](CO)[C@@H](O)[C@H](O)[C@H]2O[C@H]2C[C@](C)(N)[C@H](O)[C@H](C)O2)Oc2ccc(cc2Cl)[C@H]1O [VAN, vancomycin]
- # Positives (M. scrofulaceum; M. scrofulaceum 19981, Media + VAN 1.75): 4.0
- Average TTD (M. scrofulaceum; [3]): 14.0 days
- # Positives (M. scrofulaceum; [3]): 4.0
- # Positives (M. scrofulaceum; M. scrofulaceum 19981, Media + VAN 7): 1.0
- effect on the growth (as determined by TTD of growth) (M. scrofulaceum): negative effect
- Average TTD (M. fortuitum; Media + VAN 1.75): 4.7 days
- # Positives (M. fortuitum; Media + VAN 1.75): 4.0
- Average TTD (M. fortuitum; Media + VAN 3.5): 4.1 days
- # Positives (M. fortuitum; Media + VAN 3.5): 4.0
- Average TTD (M. fortuitum; Media + VAN 7): 4.8 days
- # Positives (M. fortuitum; Media + VAN 7): 4.0
- effect on the growth (as determined by TTD of growth) (M. tuberculosis): negative effect
- # Positives (M. kansasii; Media + VAN 1.75): 4.0
- # Positives (M. kansasii; Media + VAN 3.5): 2.0
- effect on the growth (as determined by TTD of growth) (M. kansasii): negative effect

Structure (SMILES): C[C@@H]1O[C@@H]1P(=O)(O)O [fosfomycin]
- ability to suppress contaminating respiratory flora (CRF) [1]: the best choice for suppression of CRF

Structure (SMILES): O=C(O)CCC(=O)C(=O)O [α-keto glutarate, α-ketoglutarate]
- Avg. TTD (M. intracellulare): 9.0 days and 8.8 days
- No. of positives (M. intracellulare): 3
- reduction in time to detection (TTD) of growth (M. intracellulare): two
- No. of positives (M. tuberculosis): 3
- reduction in time to detection (TTD) of growth (M. tuberculosis): two
- No. of positives (M. avium): 3
- reduction in time to detection (TTD) of growth (M. avium): two
